Assay results taken from PubChem BioAssay AID330 (DTP/NCI, 2004).
Where “and” joins values, the source holds several entries; their conditions need not be identical. Identical values can stand only once. Toxic doses and inconclusive results are not listed. The calls were made as follows: active = survival T/C of 150% or more; inactive = T/C below 125% in these data.

Tested on: P388 leukemia ip, CD2F1 mice, survival T/C
Test: NCI In Vivo Anticancer Drug Screen. Data for tumor model P388 Leukemia (intraperitoneal) in CD2F1 (CDF1) mice
Conditions: endpoint: median survival time, higher = longer survival
Summary of the method: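 Mice carrying the transplanted tumor received test compound or vehicle. Survival was recorded in each group, and the value is the treated-group measurement divided by that of the vehicle-treated control group.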

[1] = dose: 6.25 mg/kg/injection, schedule: Q01DX009 (ip), vehicle: saline with Tween-80
[2] = dose: 12.5 mg/kg/injection, schedule: Q01DX009 (ip), vehicle: saline with Tween-80
[3] = dose: 25.0 mg/kg/injection, schedule: Q01DX009 (ip), vehicle: saline with Tween-80
[4] = dose: 50.0 mg/kg/injection, schedule: Q01DX005 (ip), vehicle: saline with Tween-80
[5] = dose: 50.0 mg/kg/injection, schedule: Q01DX009 (ip), vehicle: saline with Tween-80
[6] = dose: 100.0 mg/kg/injection, schedule: Q01DX009 (ip), vehicle: saline with Tween-80
[7] = dose: 200.0 mg/kg/injection, schedule: Q01DX009 (ip), vehicle: saline with Tween-80
[8] = dose: 60.0 mg/kg/injection, schedule: Q01DX005 (ip), vehicle: saline with Tween-80
[9] = dose: 120.0 mg/kg/injection, schedule: Q01DX005 (ip), vehicle: saline with Tween-80
[10] = dose: 240.0 mg/kg/injection, schedule: Q01DX005 (ip), vehicle: saline with Tween-80
[11] = dose: 100.0 mg/kg/injection, schedule: Q01DX005 (ip), vehicle: saline with Tween-80
[12] = dose: 200.0 mg/kg/injection, schedule: Q01DX005 (ip), vehicle: saline with Tween-80
[13] = dose: 50.0 mg/kg/injection, schedule: Q01DX009 (ip), vehicle: saline
[14] = dose: 60.0 mg/kg/injection, schedule: Q01DX005 (ip), vehicle: saline
[15] = dose: 50.0 mg/kg/injection, schedule: Q01DX009 (ip), vehicle: Klucel (hydroxypropylcellulose) (HPC)
[16] = dose: 100.0 mg/kg/injection, schedule: Q01DX009 (ip), vehicle: Klucel (hydroxypropylcellulose) (HPC)
[17] = dose: 200.0 mg/kg/injection, schedule: Q01DX009 (ip), vehicle: Klucel (hydroxypropylcellulose) (HPC)
[18] = dose: 25.0 mg/kg/injection, schedule: Q01DX005 (ip), vehicle: saline with Tween-80
[19] = dose: 100.0 mg/kg/injection, schedule: Q01DX001 (ip), vehicle: saline with Tween-80
[20] = dose: 200.0 mg/kg/injection, schedule: Q01DX001 (ip), vehicle: saline with Tween-80

Measured: T/C

O=C(CCCN1CCC(C(O)c2ccc(F)cc2)CC1)c1ccc(F)cc1 (configuration not stated)
inactive: dose: 3.0 mg/kg/injection, schedule: Q01DX005 (ip), vehicle: saline with Tween-80 101 % of control | dose: 3.13 mg/kg/injection, schedule: Q01DX009 (ip), vehicle: saline with Tween-80 98 % of control | dose: 6.0 mg/kg/injection, schedule: Q01DX005 (ip), vehicle: saline with Tween-80 104 % of control | [1] 92 % of control | dose: 12.0 mg/kg/injection, schedule: Q01DX005 (ip), vehicle: saline with Tween-80 98 % of control | [2] 103 % of control | [3] 107 % of control | [4] 114 % of control | [5] 100 % of control | [6] 95 % of control

Cc1ccnc(N=C2N=C(Nc3cc(C)ccn3)c3ccccc32)c1
inactive: [1] 93 % of control | [2] 88 % of control | [3] 99 % of control | [6] 91 % of control | [7] 90 % of control

COC(=O)C1=C(C)NC(c2ccc(OC)cc2OC)C(C(=O)OC)=C1C (configuration not stated)
inactive: [8] 105 % of control | [9] 102 % of control | [10] 97 % of control

Cn1nc(C(N)=O)c(=O)[nH]c1=S
inactive: [4] 100 % of control | [11] 99 % of control | [12] 103 % of control

COc1cc2c(cc1OC(C)=O)C(=O)C(Br)(Br)CCC2
inactive: dose: 15.0 mg/kg/injection, schedule: Q01DX009 (ip), vehicle: saline with Tween-80 98 % of control | [3] 103 % of control | dose: 30.0 mg/kg/injection, schedule: Q01DX009 (ip), vehicle: saline with Tween-80 106 % of control | [5] 100 % of control and 116 % of control | dose: 60.0 mg/kg/injection, schedule: Q01DX009 (ip), vehicle: saline with Tween-80 100 % of control | [6] 99 % of control | [7] 106 % of control

OC1CN(CCCCCCN2CC(O)ON2)NO1 (configuration not stated)
inactive: [13] 93 % of control | dose: 100.0 mg/kg/injection, schedule: Q01DX009 (ip), vehicle: saline 93 % of control | dose: 200.0 mg/kg/injection, schedule: Q01DX009 (ip), vehicle: saline 97 % of control

CC1OC(=O)c2cc3ccccc3nc21 (configuration not stated)
inactive: [8] 93 % of control | [9] 100 % of control | [10] 93 % of control

COc1ccccc1C(=O)C(CN(C)C)CN(C)C
inactive: dose: 1.87 mg/kg/injection, schedule: Q01DX005 (ip), vehicle: saline 105 % of control | dose: 3.75 mg/kg/injection, schedule: Q01DX005 (ip), vehicle: saline 108 % of control | dose: 7.5 mg/kg/injection, schedule: Q01DX005 (ip), vehicle: saline 112 % of control | [14] 112 % of control

FC(F)(F)c1ccc(C2(c3ccccc3)C=C(c3ccccc3)SC(c3ccccc3)=C2)cc1
inactive: [15] 102 % of control | [16] 94 % of control | [17] 97 % of control

COc1cc2c(cc1OC)C(CO)C1c3cc4c(cc3CCN1C2)OCO4 (configuration not stated)
inactive: dose: 50.0 mg/kg/injection, schedule: Q04DX003 (ip), vehicle: distilled water + Tween-80 98 % of control | dose: 100.0 mg/kg/injection, schedule: Q04DX003 (ip), vehicle: distilled water + Tween-80 98 % of control | dose: 200.0 mg/kg/injection, schedule: Q04DX003 (ip), vehicle: distilled water + Tween-80 96 % of control | dose: 400.0 mg/kg/injection, schedule: Q04DX003 (ip), vehicle: distilled water + Tween-80 96 % of control

NCC1=NCCN1
inactive: [14] 92 % of control | dose: 120.0 mg/kg/injection, schedule: Q01DX005 (ip), vehicle: saline 99 % of control | dose: 240.0 mg/kg/injection, schedule: Q01DX005 (ip), vehicle: saline 94 % of control

NC(=S)Oc1ccccc1
inactive: [1] 103 % of control | [2] 100 % of control | [3] 106 % of control | [6] 93 % of control | [7] 93 % of control

CC(C)(C)C(=O)OC/C=C\COC(=O)c1ccccc1
inactive: dose: 25.0 mg/kg/injection, schedule: Q01DX009 (ip), vehicle: Klucel (hydroxypropylcellulose) (HPC) 101 % of control | [15] 104 % of control and 95 % of control and 96 % of control | [16] 103 % of control and 104 % of control and 122 % of control | [17] 111 % of control

NS(=O)(=O)c1ccc(NC(=O)Nc2cc(C(F)(F)F)ccc2Cl)cc1
inactive: [8] 103 % of control | [9] 96 % of control | [10] 87 % of control

O=C1c2cccc3c([N+](=O)[O-])ccc(c23)C(=O)N1NCCO
inactive: dose: 12.5 mg/kg/injection, schedule: Q01DX005 (ip), vehicle: saline with Tween-80 108 % of control | [18] 116 % of control | [4] 111 % of control and 116 % of control | [11] 114 % of control

CC[N]1c2cc(C(C)(C)C)cc(C(C)(C)C)c2[O][Sb]1([c]1ccccc1)([c]1ccccc1)[c]1ccccc1
inactive: [5] 98 % of control | [6] 100 % of control | [7] 98 % of control

COC(=O)/C(C)=N/SC(c1ccccc1)(c1ccccc1)c1ccccc1
inactive: [4] 102 % of control | [11] 104 % of control | [12] 98 % of control

COc1ccc(C2Cc3cc(OC)c(OC)cc3C(c3ccccc3)N2)cc1OC (configuration not stated)
inactive: [8] 86 % of control | [9] 88 % of control | [10] 89 % of control

CCCCCCCc1c(C)[nH]c2cc(OC)ccc2c1=O
inactive: [5] 93 % of control | [6] 95 % of control | [7] 94 % of control

CN(C)C1CCc2ccccc2C1OC(=O)/C=C/c1ccccc1 (configuration not stated)
inactive: [2] 101 % of control | [3] 106 % of control | [5] 111 % of control | [6] 111 % of control

O=C1NC(=O)C2(CCCc3c([N+](=O)[O-])cccc32)N1 (configuration not stated)
inactive: [5] 97 % of control | [6] 93 % of control | [7] 90 % of control

CC(=O)Nc1c(Cl)c(Cl)c2c(c1Cl)Cc1cc(Br)ccc1-2
inactive: dose: 100.0 mg/kg/injection, schedule: Q04DX003 (ip), vehicle: saline with Tween-80 109 % of control

O=C(O)Cc1c[nH]c2ccccc12
inactive: [19] 105 % of control | [20] 100 % of control | dose: 400.0 mg/kg/injection, schedule: Q01DX001 (ip), vehicle: saline with Tween-80 99 % of control

Cc1ccc(S(=O)(=O)NC(=O)NC(=S)c2cccs2)cc1
inactive: dose: 50.0 mg/kg/injection, schedule: Q01DX001 (ip), vehicle: saline with Tween-80 98 % of control | [19] 97 % of control | [20] 91 % of control

Nc1nc(N)c(-c2ccc(Cl)c(Cl)c2)c(COc2cccc(CNC(=O)c3cccc(S(=O)(=O)F)c3)c2)n1
inactive: dose: 100.0 mg/kg/injection, schedule: Q04DX003 (ip), vehicle: Klucel (hydroxypropylcellulose) (HPC) 110 % of control | dose: 400.0 mg/kg/injection, schedule: Q04DX003 (ip), vehicle: Klucel (hydroxypropylcellulose) (HPC) 120 % of control

CN1CCC2(CC1)OCCCO2
inactive: [18] 102 % of control | [4] 94 % of control | dose: 50.0 mg/kg/injection, schedule: Q01DX005 (ip), vehicle: saline 99 % of control | dose: 75.0 mg/kg/injection, schedule: Q01DX001 (ip), vehicle: saline with Tween-80 105 % of control | [11] 100 % of control and 88 % of control | dose: 100.0 mg/kg/injection, schedule: Q01DX005 (ip), vehicle: saline 96 % of control | dose: 125.0 mg/kg/injection, schedule: Q01DX001 (ip), vehicle: saline with Tween-80 101 % of control | dose: 200.0 mg/kg/injection, schedule: Q01DX005 (ip), vehicle: saline 102 % of control | dose: 250.0 mg/kg/injection, schedule: Q01DX001 (ip), vehicle: saline with Tween-80 93 % of control

CC(CCC(=O)O)(c1ccc(OC(=O)Nc2cccc([N+](=O)[O-])c2)cc1)c1ccc(OC(=O)Nc2cccc([N+](=O)[O-])c2)cc1
inactive: [4] 98 % of control | [11] 91 % of control

Cc1ccc(/C=N/S(=O)(=O)Cc2ccccc2)cc1
inactive: [15] 99 % of control | [16] 100 % of control | [17] 100 % of control

CC(=O)c1c(O)c(C)c(O)c2c1OC1=CC(=O)C(C(C)=O)C(=O)C12C (configuration not stated)
inactive: [1] 100 % of control and 122 % of control | [2] 115 % of control and 97 % of control | dose: 12.5 mg/kg/injection, schedule: Q01DX009 (ip), vehicle: saline 97 % of control | [3] 101 % of control and 103 % of control (2×) | [13] 109 % of control and 111 % of control

CCCCOP(=O)(O)OCCCC.[U]
inactive: [1] 97 % of control
